From PubChem BioAssay (NCI) come the findings set out here.

Common to all, as to assay: DTP human tumour cell line panel, 48 h
Experiment [1] concerns SK-MEL-2 melanoma.
In experiment [2] the test system is ACHN renal.
The subject of experiment [3] is HCT-15 colon.
Experiment [4] deals with SK-MEL-28 melanoma.
The subject of experiment [5] is SF-268 CNS.
Experiment [6] deals with EKVX NSCLC.
Experiment [7] deals with OVCAR-8 ovarian.
Experiment [8] concerns SK-MEL-5 melanoma.

Molecules are shown by their SMILES. “And” between values parts separate entries of the source, which are not always exact repeats. Equal values may be shown once.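 96-well plates; 48 h exposure; 5 concentrations. Endpoints by linear interpolation between flanking doses. Not reached: highest tested concentration assigned. The concentration for 50% growth inhibition is given as GI50. TGI: concentration producing complete growth inhibition.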

With `Cc1ccc(NC(=O)OCC(COc2ccc(Cl)cc2Cl)OC(=O)Nc2ccc(C)cc2)cc1` (centres undefined), the TGI in experiment [1], in experiment [2], in experiment [3], in experiment [4], in experiment [5] and in experiment [6] was greater than 100 µM in each case. Moreover, the TGI (usually the concentration giving total growth inhibition) in experiment [7] stood at 39.3 µM.
In the case of `CCCCCCCCCCCCCB(O)O`, the GI50 (commonly the concentration at which growth is held to half of that of the control) in experiment [8] is > 100 µM and 45.4 µM; in experiment [2], > 100 µM and 45.4 µM; in experiment [3] it was > 100 µM and 49.3 µM; in experiment [6] it was > 100 µM and 45.5 µM. The TGI in experiment [8], in experiment [1], in experiment [2], in experiment [3], in experiment [4] and in experiment [5] was greater than 100 µM in each case. For the same compound, the TGI in experiment [6] and in experiment [7] was greater than 100 µM in each case.
For the compound `CC(=O)O[C@H]1CC2C=CC3C(CCC31)O2` (some centres undefined), the TGI in experiment [2], in experiment [3], in experiment [4], in experiment [5], in experiment [6] and in experiment [7] was greater than 100 µM each time.
Turning to `C=C(CCCO)[C@@H]1CC[C@@](C)(O)[C@H]1C`, the TGI in experiment [8], in experiment [1], in experiment [2], in experiment [3], in experiment [4] and in experiment [6] was greater than 100 µM each time. This compound also showed a TGI in experiment [7] greater than 100 µM.
For `CC(C)C1N2CCCCC2[C@@H]2c3[nH]c4ccccc4c3CCN12` (some centres undefined), the TGI in experiment [8], in experiment [1], in experiment [2], in experiment [3], in experiment [4] and in experiment [5] was greater than 100 µM throughout. Also, the TGI in experiment [6] and in experiment [7] was greater than 100 µM throughout.
As to `CC1CC[P+](c2ccccc2)(c2ccccc2)CC1`, the concentration for total growth inhibition (TGI) in experiment [8] was 51.1 µM; in experiment [1], greater than 100 µM; in experiment [2], greater than 100 µM; in experiment [3], greater than 100 µM; in experiment [4], greater than 100 µM; in experiment [6], greater than 100 µM. Also, the TGI in experiment [7] is greater than 100 µM.
As to `COc1ccc2nc(NC(=O)C(=O)NNC(=O)c3ccncc3)sc2c1`, the TGI in experiment [8], in experiment [2], in experiment [3], in experiment [4], in experiment [5] and in experiment [6] was greater than 100 µM throughout. Further, in experiment [7], the concentration for total growth inhibition (TGI) was greater than 100 µM.
For the compound `C/C(=N\NC(=O)CC(=O)N(C(=O)c1ccc(Cl)cc1)c1ccc(C)cc1)c1ccccc1O`, the TGI in experiment [8], in experiment [1], in experiment [2], in experiment [3], in experiment [4] and in experiment [5] was greater than 100 µM each time. The TGI in experiment [6] and in experiment [7] was greater than 100 µM each time.
Consider `COc1cccc(NC(=O)C(=O)C2C=CCS2(=O)=O)c1` (centres undefined), for which the TGI in experiment [8], in experiment [1], in experiment [2], in experiment [3], in experiment [4] and in experiment [5] was greater than 100 µM in each case. Also, the TGI in experiment [6] and in experiment [7] was greater than 100 µM each time.
On to `Cc1ccc2nc(NC(=O)/C(=N\NC(=S)NN)C3C(=O)NC(=S)NC3=O)sc2c1`, for which the TGI in experiment [8], in experiment [1], in experiment [2], in experiment [3], in experiment [4] and in experiment [5] was greater than 100 µM throughout. Besides, the TGI in experiment [6] and in experiment [7] was greater than 100 µM in each case.
As for `COC[C@H](C)N=CN1CCc2ccccc2C1(Cc1ccccc1)Cc1ccccc1`, the TGI in experiment [8] is greater than 100 µM; in experiment [1], 23.6 µM; in experiment [2] it was 59.8 µM; in experiment [3], 39.1 µM; in experiment [4], 23.6 µM; in experiment [5] it was 45.9 µM. Moreover, the TGI in experiment [6] is 92.6 µM; in experiment [7], 28.8 µM.
Regarding `CCOC(=O)CNc1nnnn1C1OC(CO)C(O)C1O` (centres undefined), the concentration for total growth inhibition (TGI) in experiment [8], in experiment [1], in experiment [2], in experiment [3], in experiment [5] and in experiment [6] was greater than 100 µM in each case. Moreover, the TGI in experiment [7] was greater than 100 µM.
For `c1ccc2c(NCCCCCCNc3cccc4ccccc34)cccc2c1`, the TGI in experiment [8], in experiment [1], in experiment [2], in experiment [3], in experiment [4] and in experiment [5] was greater than 100 µM throughout. Moreover, the TGI in experiment [6] and in experiment [7] was greater than 100 µM each time.
Regarding `COc1c2c(cc3c1C(=O)Cc1ccc4c(c1CN(C)CC3)OCO4)OCO2`, the TGI in experiment [8], in experiment [1], in experiment [2], in experiment [3], in experiment [4] and in experiment [5] was greater than 100 µM throughout. The TGI in experiment [6] and in experiment [7] was greater than 100 µM each time.
As to `c1ccc(N/N=C2\NN=C(c3ccccc3)CS2)cc1`, the TGI in experiment [1] was found to be 44 µM; in experiment [2] it was 19.1 µM; in experiment [3], 20.9 µM; in experiment [4], 36.6 µM; in experiment [5] it was 19.8 µM; in experiment [6], 37.4 µM. Further, the TGI in experiment [7] stood at 19.7 µM.
For the compound `COC(=O)/C(=N\NC(N)=O)C(C(=O)C=C(C)C)C(=O)C(=O)Nc1ccc(Cl)c(Cl)c1` (centres undefined), the TGI in experiment [8], in experiment [1], in experiment [2], in experiment [3], in experiment [4] and in experiment [5] was greater than 100 µM throughout. The TGI in experiment [6] and in experiment [7] was greater than 100 µM in each case.
